Tested on: chicken mites
Experiment: Tests for resistance to other miticides
Set-up: species or system Dermanyssus gallinae
Details: for % deaths 1× dose: 1× the dose on the product's instructions; for % deaths 4× dose: 4× the commercial dose; for % deaths 8× dose: 8× the commercial dose; for % deaths 16× dose: 16× the commercial dose; for % deaths 32× Dose: 32× the commercial dose
Excerpt: The doses were chosen at 1 to 32 times the dose commercially given on the products' instructions.

SMILES	% deaths 1× dose	% deaths 4× dose	% deaths 8× dose	% deaths 16× dose	% deaths 32× Dose	% deaths 4× dose (listed as Aphamethrine)	% deaths 1× dose (listed as Amitraze)
COP(=O)(OC)C(O)C(Cl)(Cl)Cl (stereo not drawn) [Trichlorfon]	20.4%	39.7%	34.4%	80.8%	94.4%		
CC1(C)C(C=C(Cl)Cl)C1C(=O)OC(C#N)c1cccc(Oc2ccccc2)c1 (stereo not drawn) [Aplhamethrine]	48.1%	85.2%	97.0%	98.9%	99.6%	85%	
CNC(=O)Oc1cccc2ccccc12 [Carbaryl]	19.3%	37.8%	64.4%	91.1%	97.8%		
COP(=O)(OC)SCn1c(=O)oc2cc(Cl)cnc21 [Azamethiphos]	30.0%	43.3%	54.8%	100.00%	97.8%		
Cc1ccc(/N=C/N(C)/C=N/c2ccc(C)cc2C)c(C)c1 [Amitraz]	97.4%	98.5%	100.00%	100.00%	100.0%		most efficient miticide

Source: patent US9844217B2, “Allomone repulsive and kairomone attractive compositions for controlling arachnids” (Fideline, priority 2002, dated 2017)
